Laboratory results from US10172917B2, “Targeted oesophageal administration of ZN-α2-glycoproteins (ZAG), methods and formulations thereof” (ASTON UNIVERSITY, priority 2012, dated 2019).
Entries after “also recorded” stand apart in the source; their conditions may differ.

Assays:
[1] = tested on: gastrocnemius muscle; assay: Glucose uptake ex vivo into isolated muscle of treated ob/ob mice; format: in vivo, mouse; details: ob/ob mice treated 8 days; presence of insulin
[2] = tested on: ob/ob mice; assay: Oral glucose tolerance test in ob/ob mice after 3 days of oral ZAG; format: in vivo, mouse; details: oral ZAG + propanolol 40 mgkg^−1, day 3
Experimental: Animals were grouped (n=5) to receive either ZAG/PBS (50 μg day^−1), or PBS in their drinking water, the experiment was repeated three times after a power analysis was performed. […] The ZAG was replaced every 48 h. One group of mice receiving ZAG were also administered propanolol (40 mgkg^−1, p.o.) daily. The dose of ZAG was chosen to be the same as that previously administered i.v. (1), so that a direct comparison could be made, between the two routes. Body weight, food and water intake, urinary glucose excretion, and body temperature, determined by the use of a rectal thermometer (RS Components, Northants, UK), were measured daily. A glucose tolerance test was performed on day 3. Animals were fasted for 12 h, followed by oral administration of glucose (1 gkg^−1 in a volume of 100 μl by gavage). Blood samples were removed from the tail vein at 15, 30, 60 and 120 min and used for the measurement of glucose. Urinary glucose was measured by collecting 0.5 ml urine and testing glucose concentration using a Boots glucose monitor. After 8 days of treatment the animals were terminated by cervical dislocation, tissues were removed and rapidly frozen in liquid nitrogen, and maintained at −80° C. […] Animal studies were conducted under Home Office Licence according to the UKCCCR Guidelines for the care and use of laboratory animals.

[3] = tested on: white and brown adipocytes; assay: Glucose uptake ex vivo into white and brown adipocytes of treated ob/ob mice; format: in vivo, mouse; details: ob/ob mice treated 8 days; absence and presence of insulin (10 nM)
Experimental: Single cell suspensions of white and brown adipocytes were obtained by incubation of minced epididymal subcutaneous and visceral WAT and BAT for 2 and 2.5 h, respectively, with Krebs-Ringer bicarbonate (KRBB) containing 1.5 mgml^−1 collagenase and 4% BSA under 95% oxygen-5% CO2 at 37° C. Adipocytes were washed twice in 1 ml KRBB, pH7.2, and then incubated for 10 min at room temperature in 0.5 ml KRBB, containing 18.5 MBq 2-[1-^14C] deoxy-D-glucose (2-DG), together with non-radioactive 2-DG, to give a final concentration of 0.1 mM, in the absence or presence of insulin (10 nM). Uptake was terminated by addition of 1 ml ice-cold KRBB without glucose. Adipocytes were washed three times with 1 ml KRBB and lysed by the addition of 0.5 ml 1M NaOH. The uptake of 2-[1-^14C] DG was determined by liquid scintillation counting.

[4] = tested on: ob/ob mice; assay: Serum metabolite and insulin levels in ob/ob mice after ZAG administration; format: in vivo, mouse; details: ob/ob mice, oral ZAG + propanolol
Description: FCS (foetal calf serum) was from Biosera (Sussex, UK), while DMEM (Dulbecco's modified Eagles Medium) was from PAA (Somerset, UK) and Freestyle medium was purchased from Invitrogen (Paisley, UK). Hybond A nitrocellulose membranes and peroxidise—conjugated rabbit anti-mouse antibody were from GE Healthcare (Bucks, UK), while enhanced chemiluminescene (ECL) development kits were purchased from Thermo Scientific (Northumberland, UK). Mouse monoclonal antibodies to full-length human and mouse ZAG were from Santa Cruz Biotechnology (Santa Cruz, Calif. A mouse insulin ELISA kit was purchased from DRG (Marburg, Germany) and glucose measurements in both urine and plasma were made using a Boots (Nottingham, UK) glucose kit. L-[U-^14C] tyrosine (sp.act 16.7 GBqmmol^−1) was purchased from Perkin Elmer Ltd, (Cambridge, UK), while 2-[1-^14C] deoxy-D-glucose (sp.act 1.85 GBqmmol^−1) was from American Radiolabeled Chemicals (Cardiff, UK).
(§1) Obese (ob/ob) mice (average weight 65 g) were bred in a colony, and were kept in an air conditioned room at 22+2° C. with ad libitum feeding of a rat and mouse breeding diet (Special Diet Services, Witham, UK) and tap water. […] Animals were grouped (n=5) to receive either ZAG/PBS (50 μg day^−1), or PBS in their drinking water, the experiment was repeated three times after a power analysis was performed. […] The ZAG was replaced every 48 h. One group of mice receiving ZAG were also administered propanolol (40 mgkg^−1, p.o.) daily. The dose of ZAG was chosen to be the same as that previously administered i.v. (1), so that a direct comparison could be made, between the two routes. Body weight, food and water intake, urinary glucose excretion, and body temperature, determined by the use of a rectal thermometer (RS Components, Northants, UK), were measured daily. A glucose tolerance test was performed on day 3. Animals were fasted for 12 h, followed by oral administration of glucose (1 gkg^−1 in a volume of 100 μl by gavage). Blood samples were removed from the tail vein at 15, 30, 60 and 120 min and used for the measurement of glucose. Urinary glucose was measured by collecting 0.5 ml urine and testing glucose concentration using a Boots glucose monitor. After 8 days of treatment the animals were terminated by cervical dislocation, tissues were removed and rapidly frozen in liquid nitrogen, and maintained at −80° C. Future work would be to repeat this work in diet-induced animals as alternative to a model with gene alteration, although previous studies have shown the ob/ob mouse to be a good indicator of potential human treatments. Animal studies were conducted under Home Office Licence according to the UKCCCR Guidelines for the care and use of laboratory animals.

[5] = tested on: murine ZAG; assay: Western blotting of murine ZAG in serum and WAT of ob/ob mice; format: in vivo, mouse; details: ob/ob mice, oral ZAG + propanolol 40 mgkg^−1
Experimental: Tissues were thawed, washed in PBS and lysed in Phosphosafe™ Extraction reagent for 5 min at room temperature, followed by sonication at 4° C. Cytosolic protein (5-20 ug) formed by centrifugation at 18,000 g for 5 min at 4° C., was resolved on 12% SDS PAGE by electrophoresis at 180V for about 1 h. To determine ZAG in serum 30 μl samples containing 20 μg total protein were electrophoresed as above. Protein was transferred to 0.45 μm nitrocellulose membranes, which had been blocked with 5% (w/v) non-fat dried milk (Marvel) in Tris-buffered saline, pH 7.5, at 4° C. overnight. Membranes were washed for 15 min in 0.1% Tween 20 buffered saline prior to adding the primary antibodies. Both primary and secondary antibodies were used at a dilution of 1:1000. Incubation was for 1 h at room temperature, and development was by ECL. Blots were scanned by a densitometer to quantify differences.

[6] = tested on: ob/ob mice; assay: Oral ZAG in drinking water to ob/ob mice: body weight, rectal temperature, urinary glucose excretion; format: in vivo, mouse
Experimental: as §1, with “One group of mice receiving ZAG were also administered propanolol (40 mgkg^−1, p.o.) daily.” left out

[7] = tested on: 3T3 L1 adipocytes; details: cited from earlier work
[8] = oral ZAG + propanolol 40 mgkg^−1

SMILES	effect of propanolol on ZAG-induced glucose uptake ex vivo into gastrocnemius muscle [1]	effect of propanolol on ZAG-induced increase in insulin sensitivity [2]	effect of propanolol on ZAG-reduced peak blood glucose concentration / improvement in glucose disposal in glucose tolerance test [2]	effect of propanolol on ZAG-induced glucose uptake into BAT [3]	effect of propanolol on ZAG-induced stimulation of glucose uptake ex vivo into epididymal, subcutaneous and visceral adipocytes [3]	effect of propanolol on decrease in serum glucose after ZAG administration [4]	effect of propanolol on decrease in serum insulin levels after ZAG administration [4]	murine ZAG in the serum of animals given ZAG and co-administered propanolol [5]	effect of propanolol on weight gain of mice administered PBS ([6]; PBS + propanolol)	effect of propanolol on ZAG-induced weight loss ([6]; oral ZAG 50 μg daily + propanolol 40 mg/kg po daily)	effect of propanolol on ZAG-induced weight loss ([6]; oral ZAG + propanolol 20 mgkg^−1)	effect of propanolol on ZAG induced increase in rectal temperature [6, 8]	effect of propanolol on ZAG induced reduction in urinary excretion of glucose [6, 8]	levels of ZAG mRNA [7]
CC(C)NC[C@H](O)COc1cccc2ccccc12 (racemic) [propanolol]	attenuated	blocked; also recorded: attenuated	blocked; also recorded: attenuated	attenuated	attenuated	completely attenuated	completely attenuated	no increase; also recorded: attenuated	no effect	blocked; also recorded: attenuated	did not prevent the weight loss	completely attenuated	completely attenuated	–
C[C@H](Cc1ccc(OCC(=O)O)cc1)NC[C@H](O)c1cccc(Cl)c1 [BRL37344]	–	–	–	–	–	–	–	–	–	–	–	–	–	increase
